A word on the melting point: it is the temperature, or range, at which the solid turns liquid.

Molecule `CC(C)S(=O)(=O)C(C#N)=C(Nc1cc(C(F)(F)F)cc(C(F)(F)F)c1)NC1CCCC1` displayed a melting point of 172 to 173 °C.
The figure for `Cc1nsc(NC(=O)Cc2ccc3oc(CC(C)(C)C)nc3c2)c1Cl` is 144 to 145 °C.
Then `CCCC1=Nc2ccccc2CC(c2ccsc2)N1C` (stereo not drawn), with 44.5 to 46.5 °C; and `Cc1ccc(C(=O)Nc2ccccc2C(N)=O)cc1`, with 206 to 208 °C; and `Cc1nc(OCCCc2cc(OC(C)C)nn2Cc2ccc(Cl)cc2Cl)c(CC(=O)O)s1`, with 75 to 77 °C.
Then `CC(C)(C)c1ccc(-c2cc3ccc(C(=O)O)cc3[nH]2)cc1`, with 297 °C; and `Cc1cc(C2=NOC(c3cc(Cl)cc(Cl)c3)(C(F)(F)F)C2)ccc1C(=O)NCC(N)=O` (stereo not drawn), with 87 to 91 °C; and `O=NCNC1=Nc2ccsc2C(c2ccccc2)=NC1`, with 156 to 159 °C.
`CCOc1cc(N2CCOCC2)c(OCC)cc1N=NNN1CCOCC1` showed a melting point of 137 to 139 °C.
Then `FC(F)(F)c1ccc(/C=C/c2nc(COc3ccc(CCCCn4ccnn4)cc3)co2)cc1`, with 160 to 161 °C; and `Cc1c(-c2ccccc2)[nH]c2ccc(Br)cc12`, with 138 to 140 °C; and `C=CCOC(=O)C1=C(C)NC(C)=C(C(=O)OCC)C1c1ccc(OC)c(OC)c1OC` (stereo not drawn), with 134 to 135 °C.
Then `C=C(CCCC(=O)N1CCC[C@@H](C(=O)OC(C)(C)C)N1)C(=O)OCC`, with 63 to 65 °C; and `CN1CC(CCCl)Oc2cc3ccccc3nc2C1=S` (stereo not drawn), with 114 to 116 °C.
Then `Cc1c(C(=O)Nc2ccc(N3CCN(C4CCOCC4)CC3)c(C#N)c2)cnn1-c1cccc(Cl)c1`, with 230 °C; and `COCCOc1ccc(-c2sc(N3C(=O)c4ccccc4C3=O)c(C(=O)c3ccc(Cl)cc3)c2CBr)cc1`, with 142 to 145 °C; and `Nc1ncc(-c2ccc(C(F)(F)F)cc2)cc1C(F)(F)F`, with 168 °C.
With `CCc1nc(CO)c(CO)[nH]1`, the melting point was in the range of 173 to 174 °C.
The figure for `CC(F)c1nc[nH]c(=O)c1Cl` (stereo not drawn) is 190 to 191 °C.
Then `COc1ccc(C(=O)Nc2c(Cl)cncc2Cl)c2c1oc1ccc(NC(=O)NCC(=O)O)cc12`, with above 250 °C; and `CCCCC(O)c1nc2c(C(F)(F)F)cccc2c(O)c1C(=O)Nc1nccs1` (stereo not drawn), with 190 °C.
The figure for `Cc1nn(-c2c(Cl)cc(C(F)(F)F)cc2Cl)c(N)c1SC#N` is 134 °C; for `CC(C)(C)c1cc(C=C2Sc3ccccc3N(CC(N)=O)C2=O)cc(C(C)(C)C)c1O` it is 137 to 144 °C.
`FC(F)(F)c1ccc(OCCC(Br)c2ccccc2)cc1` (stereo not drawn): the melting point lay in the range of 61 to 63 °C.
Then `CC(=O)OC1COC(N=[N+]=[N-])C(OC(C)=O)C1OC(C)=O` (stereo not drawn), with 76 °C; and `CCCCCC(CC(=O)Nc1cc(C(=O)Nc2ccncc2)ccc1C(C)(C)C)c1c(OC)cccc1OC` (stereo not drawn), with 169 to 172 °C.
The figure for `CC(=O)N1CCN(C)C1C(c1ccccc1)c1ccccc1` (stereo not drawn) is 164 to 165 °C.
Then `CCCC1=C(C(=O)OCC)C(c2cccc(C(F)(F)F)c2Cl)c2c[nH]nc2N1` (stereo not drawn), with 236 to 238 °C.
Take `CC(C)(C)c1cccc2c1OC(CNC(=O)OCc1ccccc1)C2` (stereo not drawn): the melting point fell in the range of 73 to 76 °C.
Then `CCOc1ncc(C(=O)O)c2ccccc12`, with 222 °C; and `CC(C)c1cccc(C(C)C)c1NC(=O)C1CCCC(CCCCCOc2ccccc2)(c2ccccc2)C1=O` (stereo not drawn), with 150 to 153 °C.
Then `Cc1cc(Nc2ncnc3ccn(CCNC(=O)C(C)(C)C)c23)ccc1Oc1cccc2sncc12`, with 189 to 191 °C.
Then `CS(=O)(=O)Nc1ccc(NC(=O)c2c[nH]c(=S)n2C2CCc3c(F)cc(F)cc3C2)cc1` (stereo not drawn), with 225 to 230 °C; and `O=C(c1ccc(F)cc1)c1c(-c2ccc(OCCN3CCCC3)cc2)sc2c(O)cccc12`, with 138 to 142 °C; and `Cc1ccccc1NC(=O)Nc1ccc(CC(=O)N[C@@H](CC(C)C)C(=O)O)cc1`, with 178 to 179 °C.
For `CCOC(=O)C1=C(CCl)NC(C)=C(C(=O)OC)C1c1cccc(C(F)(F)F)c1` (stereo not drawn), the melting point lay in the range of 115 to 116 °C.
Then `Cc1cc(O)nc(CCCCOc2nccc(NC(N)=NCC(F)(F)F)n2)n1`, with 191 to 193 °C; and `CC(C)(C#N)c1cc(CC#N)cc(C(C)(C)C#N)c1`, with 72 to 73 °C.
The molecule `COc1cc(Nc2c(C#N)cnc3cc(-c4ccc(C(=O)O)cc4)ccc23)c(Cl)cc1Cl` registered a melting point of 282 to 283 °C.
Then `CCOC(=O)C1=C(C)NC(CSC(=O)c2ccc(N)cc2)=C(C(=O)OCC)C1c1cccc([N+](=O)[O-])c1` (stereo not drawn), with 78 to 80 °C.
The figure for `CCOC(=O)c1ccc(N=C(Nc2ccc(C(=O)OCC)cc2)c2ccc(OC)cc2)cc1` is 145 to 146 °C; for `CNC(=O)c1cc(CN2C(=O)C3(COc4cc5c(cc43)OCO5)c3ccccc32)oc1C(F)(F)F` (stereo not drawn) it is 202 to 203 °C.
Take `COc1cc(-c2cn(-c3cccc(OCCn4ccnc4)c3)c3ncnc(N)c23)ccc1OCc1ccccc1`: the melting point was in the range of 122 to 124 °C.
Then `CC(C)c1ccc(C#N)nc1`, with 47 to 49 °C; and `O=C(Nc1ccc(Oc2ccccc2)cc1)N1CCN(c2nnc(Cc3ccccc3)c3ccccc23)CC1`, with 100 to 101 °C.
`COc1cc2c(cc1Nc1ncc(Cl)c(Nc3ccccc3S(=O)(=O)N(C)C)n1)CCN(CC(C)(C)O)CC2` yielded a melting point of 188 to 189 °C.
The figure for `CCC1C(C)=NN=C(c2cc(OC)c(OC)c(OC)c2)c2cc(OC)c(OC)cc21` (stereo not drawn) is 152 to 155 °C.
The figure for `CCOC(=O)c1ccc(C=O)cn1` is 59 °C; for `C[C@]1(CN2CCN(C(=O)OCC=Cc3ccc(C(F)(F)F)cc3)CC2)Cn2cc([N+](=O)[O-])nc2O1` it is 132 to 133 °C.
The figure for `CC(C)CNc1ccc(Cl)cc1C(O)c1ccccc1OCc1ccccc1` (stereo not drawn) is 79 to 80 °C.
Take `N#Cc1cccc(-c2csc(N=C(N)N)n2)n1`: the melting point is above 300 °C.
The figure for `COC(=O)N1CCC[C@@H](OC)[C@@H]1CC(=O)Cn1cnc2c(Cl)c(Cl)sc2c1=O` (relative stereo) is 58 to 62 °C; for `[O-][N+]1=C(c2ccco2)c2cc(Cl)ccc2N(CCCl)C(CCl)C1` (stereo not drawn) it is 158 to 159 °C.
Then `COC(=O)C(C#N)c1nc(-c2c(F)cccc2F)cs1` (stereo not drawn), with 219 to 224 °C; and `O=C(Nc1ccc(F)cc1)O[C@@H]1CN=C(c2ccccc2)O[C@H]1c1ccccc1` (racemic), with 158 °C; and `CON=C1CN(c2c(F)cc3c(=O)c(C(=O)O)cn(C4CC4)c3c2OC)CC12CC2`, with 219 to 221 °C.
The figure for `CCOC(=O)Cc1c(C(=O)O)c(C)cn1C` is 182 to 185 °C; for `COc1ccc(C(=O)Cc2ccncc2)cc1OC1CCCC1` it is 102 to 103 °C.
`OC1CSC(Oc2cccc(-c3cncc(F)c3)c2)C(O)C1O` (stereo not drawn) gave a melting point of 211 to 212 °C.
Then `Fc1ccc(CNC(=S)N2CCc3c([nH]c4ccccc34)C2c2ccc3c(c2)OCO3)cc1` (stereo not drawn), with 137 to 139 °C; and `NNc1ccnc2c(NC(=O)c3ccccc3[N+](=O)[O-])cccc12`, with 198 to 203 °C.
Then `C=CS(=O)(=O)c1ccc(NC(C)=O)cc1`, with 122 °C.
Then `O=C1N(Cc2ccccn2)c2ccccc2C12COc1cc3c(cc12)CCO3` (stereo not drawn), with 84 to 85 °C.
In the case of `Nc1ccc(-c2cccnc2)c(C(F)(F)F)c1`, the melting point is 92 to 93 °C.
Then `CCN(Cc1ccccc1)C(=O)Cc1c(-c2ccc(Cl)c(Cl)c2)nc2cc(C)ccn12`, with 180 to 182 °C; and `NS(=O)(=O)c1cc(C(=O)O)cc(NCc2ccccc2)c1Sc1ccccc1`, with 224 to 225 °C; and `CCOC(=O)c1cc(OCc2ccccc2)ccc1O`, with 71.5 to 73 °C.
In the case of `CNc1nnc(-c2ccc3ncn(-c4cccc(OC(F)(F)F)c4)c3c2)o1`, the melting point fell in the range of 226 to 227 °C.
The figure for `CC(C)(C)OC(=O)N1C[C@@H]2C(=O)CCC(c3ccccc3)(c3ccccc3)[C@@H]2C1` is 119 °C.
Then `CCCCCCc1cnc(-c2ccc(OC[C@H]3CC[C@H](CCCC)CC3)cc2)nc1`, with 99 °C; and `O=C(NCc1ccccc1OC(F)(F)F)[C@@H]1CCCN(c2cccc3c2C(=O)N(Cc2ccncc2)C3=O)C1`, with 197 to 198 °C.
Regarding `CCOC(=O)Nc1c(F)cc(Cl)c2nc(C(C)(C)C)oc12`, the melting point lay within 127 to 129 °C.
Then `CCOc1ccc(S(=O)(=O)Nc2cccnc2Nc2ccccc2)cc1`, with 161 to 162 °C; and `CC(=O)NCCNCC(O)COc1ccc(CCOCC2CCC2)cc1` (stereo not drawn), with 108 °C; and `CC(CC(=O)O)c1ccc(-c2ccccc2)c(Cl)c1` (stereo not drawn), with 66 to 67 °C.
Then `CC1(C)Oc2ccc(C#N)cc2[C@@H](NC(=O)CCl)[C@@H]1O` (relative stereo), with 196 to 197 °C; and `Nc1ccc2oc3ccc(OC(F)F)c(C(=O)Nc4c(Cl)cncc4Cl)c3c2c1`, with above 270 °C.
Regarding `N#Cc1nc(NC2CCCCC2)c2ncn(CCn3ccnc3)c2n1`, the melting point lay within 115 to 117 °C.
Then `COc1ccc2ccc(N3C(=O)c4ccccc4C3CC(=O)C3CCCCC3)nc2n1` (stereo not drawn), with 140 °C; and `Cc1ccc(C(O)(c2ccc(C)cc2)C2CCN(Cc3ccccc3)CC2)cc1`, with 115 to 117 °C.
The figure for `O=C(Oc1ccccc1)N1CCC(c2nn(C(=O)c3ccccc3)c3cc(F)ccc23)CC1` is 137 to 139 °C; for `CC(=O)S[C@H]1C[C@@H](C(=O)Nc2cccc(C(=O)NS(C)(=O)=O)c2)N(C(=O)OCc2ccc([N+](=O)[O-])cc2)C1` it is 240 to 242 °C.
Then `CC(Oc1c(-c2ccc(S(C)(=O)=O)cc2)cnn(CC(F)(F)F)c1=O)c1ccc(F)cc1` (stereo not drawn), with 133 to 135 °C.

For the origin of these results see a melting point compilation (Tetko et al.; mined from patent text by program, amines drawn as free bases though some values may be those of a salt).
